Data on 18 compounds can be found in US20190256474A1, “N-PHENYL-2-(3-PHENYL-6-OXO-1,6-DIHYDROPYRIDAZIN-1-YL)ACETAMIDE DERIVATIVES FOR TREATING CYSTIC FIBROSIS” (Proteostasis Therapeutics, Inc., priority 2016, published 2019).

In the assay the target is T1, ΔF508-CFTR (Homo sapiens, UniProt P13569, DEL508-508).
T1 construct: Primary lung epithelial cells homozygous for the Cystic Fibrosis-causing ΔF508 mutation were differentiated; endogenous in cells; host or cells: primary human bronchial epithelial cells (hBE), ΔF508/ΔF508
T1 sequence (P13569 with tags, fused parts or gaps DEL508-508): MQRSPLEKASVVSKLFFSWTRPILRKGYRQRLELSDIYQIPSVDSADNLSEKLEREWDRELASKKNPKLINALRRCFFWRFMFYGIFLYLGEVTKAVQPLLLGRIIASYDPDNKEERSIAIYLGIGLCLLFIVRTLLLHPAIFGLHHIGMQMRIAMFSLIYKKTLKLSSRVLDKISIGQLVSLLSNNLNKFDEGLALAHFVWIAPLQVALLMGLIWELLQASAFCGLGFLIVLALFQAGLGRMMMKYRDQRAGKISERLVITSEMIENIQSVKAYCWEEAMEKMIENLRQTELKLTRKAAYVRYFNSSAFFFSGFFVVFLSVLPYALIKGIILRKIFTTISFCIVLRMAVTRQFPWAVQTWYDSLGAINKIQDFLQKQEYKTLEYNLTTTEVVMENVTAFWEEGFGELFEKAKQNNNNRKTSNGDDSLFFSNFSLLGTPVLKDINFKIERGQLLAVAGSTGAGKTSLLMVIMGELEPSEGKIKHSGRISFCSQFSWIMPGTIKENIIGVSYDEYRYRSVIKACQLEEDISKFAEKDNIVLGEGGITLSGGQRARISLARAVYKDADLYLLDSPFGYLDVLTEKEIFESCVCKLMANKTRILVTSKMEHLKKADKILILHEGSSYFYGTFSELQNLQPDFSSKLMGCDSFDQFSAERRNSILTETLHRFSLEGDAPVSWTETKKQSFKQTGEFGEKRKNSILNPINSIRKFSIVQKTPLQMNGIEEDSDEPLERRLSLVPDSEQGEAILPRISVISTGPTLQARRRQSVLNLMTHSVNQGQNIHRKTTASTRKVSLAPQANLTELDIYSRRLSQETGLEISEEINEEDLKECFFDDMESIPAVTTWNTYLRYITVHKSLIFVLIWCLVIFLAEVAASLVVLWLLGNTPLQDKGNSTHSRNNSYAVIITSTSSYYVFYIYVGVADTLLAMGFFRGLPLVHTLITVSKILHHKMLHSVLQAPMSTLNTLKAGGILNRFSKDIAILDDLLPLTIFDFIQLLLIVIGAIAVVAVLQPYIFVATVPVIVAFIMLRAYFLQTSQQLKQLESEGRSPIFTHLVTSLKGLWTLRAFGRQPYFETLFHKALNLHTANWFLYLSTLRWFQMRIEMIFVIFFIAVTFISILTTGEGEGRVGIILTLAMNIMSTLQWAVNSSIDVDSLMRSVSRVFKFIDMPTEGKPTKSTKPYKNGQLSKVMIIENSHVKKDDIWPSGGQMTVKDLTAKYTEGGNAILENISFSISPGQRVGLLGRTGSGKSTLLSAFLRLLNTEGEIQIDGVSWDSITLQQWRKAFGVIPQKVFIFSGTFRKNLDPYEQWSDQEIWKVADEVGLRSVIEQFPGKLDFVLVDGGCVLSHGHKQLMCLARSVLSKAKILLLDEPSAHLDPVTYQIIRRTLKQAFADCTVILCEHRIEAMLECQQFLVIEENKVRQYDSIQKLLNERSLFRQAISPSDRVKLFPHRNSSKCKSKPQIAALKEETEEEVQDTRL
The assay is described as follows: hBE equivalent current (Ieq) assay, CFTR activity. To be noted: relative to a CFTR amplifier at 3 μM, ΔF508 homozygous hBE, 24 h treatment; for Activity 3 μM: compound at 3 μM; for Activity 10 μM: compound at 10 μM. It counts as cell-based. The protocol:
Primary lung epithelial cells homozygous for the Cystic Fibrosis-causing ΔF508 mutation were differentiated for a minimum of 4 weeks in an air-liquid interface on Costar 24 well HTS filter plates prior to the equivalent current (Ieq) measurements. Cells were apically mucus-washed for 30 minutes 24 h prior to treatment with compounds. The basolateral media was removed and replaced with media containing the compound of interest diluted to its final concentration from DMSO stocks. Treated cells were incubated at 37° C. and 5% CO2 for 24 hours. At the end of the treatment period, the media was changed to the Ieq experimental solution for 2 hours before the experiment and plates are maintained in a CO2-free incubator during this period. The plates containing the cells were then placed in pre-warmed heating blocks at 36° C.±0.5 for 15 minutes before measurements are taken. The transepithelial voltage (VT) and conductance (GT) were measured using a custom 24 channel current clamp (TECC-24) with 24 well electrode manifold. The Ieq assay measurements were made following additions with standardized time periods:
1. The baseline VT and GT values were measured for approximately 20 minutes.
2. Benzamil was added to block ENaC for 15 minutes.
3. Forskolin plus VX-770 were added to maximally activate ΔF508-CFTR for 27 minutes.
4. Bumetanide was added to inhibit the NaK2Cl cotransporter and shut-off secretion of chloride.
The activity data captured was the area under the curve (AUC) for the traces of the equivalent chloride current. The AUC was collected from the time of the forskolin/VX-770 addition until the inhibition by bumetanide addition. Correction in response to compound treatment was scored as the increase in the AUC for compound-treated samples over that of vehicle-treated samples.
The results are shown below in Table 1. + indicates activity <150% of a CFTR amplifier with compound at concentration shown and amplifier at 3 μM; ++ indicates activity >150% of a CFTR amplifier with compound at concentration shown and amplifier at 3 μM.

In the case of `COc1cccc(-c2ccc(=O)n(C(C)C(=O)Nc3cc(C(F)(F)F)cc(C(F)(F)F)c3)n2)c1` (stereo not shown) [Compound 41, N-(3,5-Bis(trifluoromethyl)phenyl)-2-(3-(3-methoxyphenyl)-6-oxopyridazin-1(6H)-yl)propanamide], the “Activity 3 μM” value was “++ (activity >150% of a CFTR amplifier with compound at concentration shown and amplifier at 3 μM)”; the “Activity 10 μM” value was “++ (activity >150% of a CFTR amplifier with compound at concentration shown and amplifier at 3 μM)”. On to `CC(C(=O)Nc1ccc(C(F)(F)F)cc1)n1nc(-c2ccccc2C#N)ccc1=O` (stereo not shown) [Compound 35, 2-[3-(2-Cyanophenyl)-6-oxo-1,6-dihydropyridazin-1-yl]-N-[4-(trifluoromethyl)phenyl]propanamide], for which the “Activity 3 μM” value was “+ (activity <150% of a CFTR amplifier with compound at concentration shown and amplifier at 3 μM)”; the “Activity 10 μM” value was “+ (activity <150% of a CFTR amplifier with compound at concentration shown and amplifier at 3 μM)”. With `COc1cccc(-c2ccc(=O)n(C(C)C(=O)Nc3cccc(Cl)c3)n2)c1` (stereo not shown) [Compound 13, N-(3-Chlorophenyl)-2-[3-(3-methoxyphenyl)-6-oxo-1,6-dihydropyridazin-1-yl]propanamide], the “Activity 3 μM” value is “++ (activity >150% of a CFTR amplifier with compound at concentration shown and amplifier at 3 μM)”; the “Activity 10 μM” value was “++ (activity >150% of a CFTR amplifier with compound at concentration shown and amplifier at 3 μM)”.

Take `COc1cccc(-c2nn(C(C)C(=O)Nc3cc(F)cc(F)c3)c(=O)cc2Cl)c1` (stereo not shown) [Compound 23, 2-(4-Chloro-3-(3-methoxyphenyl)-6-oxopyridazin-1(6H)-yl)-N-(3,5-difluorophenyl)propanamide]: the “Activity 10 μM” value was “+ (activity <150% of a CFTR amplifier with compound at concentration shown and amplifier at 3 μM)”.

For the compound `COc1cccc(-c2ccc(=O)n(C(C)C(=O)Nc3ccccc3Cl)n2)c1` (stereo not shown) [Compound 12, N-(2-Chlorophenyl)-2-[3-(3-methoxyphenyl)-6-oxo-1,6-dihydropyridazin-1-yl]propanamide], the “Activity 3 μM” value is “+ (activity <150% of a CFTR amplifier with compound at concentration shown and amplifier at 3 μM)”; the “Activity 10 μM” value is “+ (activity <150% of a CFTR amplifier with compound at concentration shown and amplifier at 3 μM)”. With `CC(C(=O)Nc1cc(F)cc(F)c1)n1nc(-c2cccc(-c3ccccc3)c2)ccc1=O` (stereo not shown) [Compound 5, N-(3,5-Difluorophenyl)-2-[6-oxo-3-(3-phenylphenyl)-1,6-dihydropyridazin-1-yl]propanamide], the “Activity 3 μM” value was “+ (activity <150% of a CFTR amplifier with compound at concentration shown and amplifier at 3 μM)”; the “Activity 10 μM” value was “+ (activity <150% of a CFTR amplifier with compound at concentration shown and amplifier at 3 μM)”. As to `CC(C(=O)Nc1ccc(C(F)(F)F)cc1)n1nc(-c2ccccc2)ccc1=O` (stereo not shown) [Compound 28, 2-(6-oxo-3-phenyl-1,6-dihydropyridazin-1-yl)-N-[4-(trifluoromethyl)phenyl]propanamide], the “Activity 3 μM” value was “++ (activity >150% of a CFTR amplifier with compound at concentration shown and amplifier at 3 μM)”; the “Activity 10 μM” value is “++ (activity >150% of a CFTR amplifier with compound at concentration shown and amplifier at 3 μM)”. `CC(C(=O)Nc1ccc(C(F)(F)F)cc1)n1nc(-c2cccc(C#N)c2)ccc1=O` (stereo not shown) [Compound 36, 2-[3-(3-Cyanophenyl)-6-oxo-1,6-dihydropyridazin-1-yl]-N-[4-(trifluoromethyl)phenyl]propanamide]: the “Activity 3 μM” value was “++ (activity >150% of a CFTR amplifier with compound at concentration shown and amplifier at 3 μM)”; the “Activity 10 μM” value is “++ (activity >150% of a CFTR amplifier with compound at concentration shown and amplifier at 3 μM)”.

For the compound `CC(C(=O)Nc1ccc(C(F)(F)F)cc1)n1nc(-c2ccccc2Cl)ccc1=O` (stereo not shown) [Compound 29, 2-[3-(2-Chlorophenyl)-6-oxo-1,6-dihydropyridazin-1-yl]-N-[4-(trifluoromethyl)phenyl]propanamide], the “Activity 3 μM” value was “+ (activity <150% of a CFTR amplifier with compound at concentration shown and amplifier at 3 μM)”; the “Activity 10 μM” value was “+ (activity <150% of a CFTR amplifier with compound at concentration shown and amplifier at 3 μM)”. Consider `COc1cccc(-c2ccc(=O)n(C(C(=O)Nc3ccc(C(F)(F)F)cc3)C3CC3)n2)c1` (stereo not shown) [Compound 39, 2-Cyclopropyl-2-(3-(3-methoxyphenyl)-6-oxopyridazin-1(6H)-yl)-N-(4-(trifluoromethyl)phenyl)acetamide], for which the “Activity 3 μM” value was “++ (activity >150% of a CFTR amplifier with compound at concentration shown and amplifier at 3 μM)”; the “Activity 10 μM” value is “++ (activity >150% of a CFTR amplifier with compound at concentration shown and amplifier at 3 μM)”.

For the compound `CC(C(=O)Nc1cc(F)cc(F)c1)n1nc(-c2cccc(Cl)c2)ccc1=O` (stereo not shown) [Compound 1, 2-[3-(3-Chlorophenyl)-6-oxo-1,6-dihydropyridazin-1-yl]-N-(3,5-difluorophenyl)propanamide], the “Activity 3 μM” value is “++ (activity >150% of a CFTR amplifier with compound at concentration shown and amplifier at 3 μM)”; the “Activity 10 μM” value was “++ (activity >150% of a CFTR amplifier with compound at concentration shown and amplifier at 3 μM)”. Turning to `COc1cccc(-c2ccc(=O)n(C(C)C(=O)Nc3ccc(Cl)cc3)n2)c1` (stereo not shown) [Compound 14, N-(4-Chlorophenyl)-2-[3-(3-methoxyphenyl)-6-oxo-1,6-dihydropyridazin-1-yl]propanamide], the “Activity 10 μM” value is “++ (activity >150% of a CFTR amplifier with compound at concentration shown and amplifier at 3 μM)”.

As to `COc1cccc(-c2ccc(=O)n(C(C)C(=O)Nc3ccc(C#N)cc3)n2)c1` (stereo not shown) [Compound 44, N-(4-Cyanophenyl)-2-(3-(3-methoxyphenyl)-6-oxopyridazin-1(6H)-yl)propanamide], the “Activity 3 μM” value was “+ (activity <150% of a CFTR amplifier with compound at concentration shown and amplifier at 3 μM)”; the “Activity 10 μM” value is “+ (activity <150% of a CFTR amplifier with compound at concentration shown and amplifier at 3 μM)”. Consider `COc1cccc(-c2ccc(=O)n(C(C)C(=O)N(C)c3cc(F)cc(F)c3)n2)c1` (stereo not shown) [Compound 17, N-(3,5-Difluorophenyl)-2-[3-(3-methoxyphenyl)-6-oxo-1,6-dihydropyridazin-1-yl]-N-methylpropanamide], for which the “Activity 3 μM” value is “+ (activity <150% of a CFTR amplifier with compound at concentration shown and amplifier at 3 μM)”; the “Activity 10 μM” value is “+ (activity <150% of a CFTR amplifier with compound at concentration shown and amplifier at 3 μM)”. Turning to `COc1cc(OC)cc(-c2ccc(=O)n(C(C)C(=O)Nc3cc(F)cc(F)c3)n2)c1` (stereo not shown) [Compound 3, N-(3,5-difluorophenyl)-2-[3-(3,5-dimethoxyphenyl)-6-oxo-1,6-dihydropyridazin-1-yl]propanamide], the “Activity 3 μM” value is “++ (activity >150% of a CFTR amplifier with compound at concentration shown and amplifier at 3 μM)”; the “Activity 10 μM” value is “++ (activity >150% of a CFTR amplifier with compound at concentration shown and amplifier at 3 μM)”. As for `COc1cccc(-c2ccc(=O)n(C(C)C(=O)Nc3ccc(C(F)(F)F)cc3F)n2)c1` (stereo not shown) [Compound 42, N-(2-Fluoro-4-(trifluoromethyl)phenyl)-2-(3-(3-methoxyphenyl)-6-oxopyridazin-1(6H)-yl)propanamide], the “Activity 3 μM” value is “++ (activity >150% of a CFTR amplifier with compound at concentration shown and amplifier at 3 μM)”; the “Activity 10 μM” value was “++ (activity >150% of a CFTR amplifier with compound at concentration shown and amplifier at 3 μM)”. Regarding `COc1cccc(-c2nn(C(C)C(=O)Nc3cc(F)cc(F)c3)c(=O)cc2C)c1` (stereo not shown) [Compound 21, N-(3,5-Difluorophenyl)-2-[3-(3-methoxyphenyl)-4-methyl-6-oxo-1,6-dihydropyridazin-1-yl]propanamide], the “Activity 3 μM” value is “+ (activity <150% of a CFTR amplifier with compound at concentration shown and amplifier at 3 μM)”; the “Activity 10 μM” value was “+ (activity <150% of a CFTR amplifier with compound at concentration shown and amplifier at 3 μM)”. On to `COc1cccc(-c2ccc(=O)n(C(C)C(=O)Nc3ccc(C(F)(F)F)c(F)c3)n2)c1` (stereo not shown) [Compound 43, N-[3-Fluoro-4-(trifluoromethyl)phenyl]-2-[3-(3-methoxyphenyl)-6-oxo-1,6-dihydropyridazin-1-yl]propanamide], for which the “Activity 3 μM” value was “++ (activity >150% of a CFTR amplifier with compound at concentration shown and amplifier at 3 μM)”; the “Activity 10 μM” value was “++ (activity >150% of a CFTR amplifier with compound at concentration shown and amplifier at 3 μM)”.
